# Assays:
# [1] = test system: subjects with chronic gout and hyperuricemia; assay: Case study of diacerein and allopurinol combination therapy in subjects with chronic gout and hyperuricemia; format: in vivo, human; details: for blood level of uric acid: visit 1 before diacerein
# Method: In DIA-DM01 trial described in Example 1, two subjects enrolled in the diacerein group had chronic gout history and were currently treating with allopurinol.
# Case 1: A person with history of chronic gout and hyperuricemia was treated with allopurinol since Jan. 2, 2009. Before they were enrolled in the diacerein trial, their medical treatment was unsatisfactory, and their blood level of uric acid was 8.3 mg/dL in visit 1 (Jul. 8, 2009).
# Case 2: A person with history of chronic gout and hyperuricemia was treated with allopurinol since Aug. 27, 2009. Before they were enrolled in the diacerein trial, their medical treatment was also unsatisfactory, and their blood level of uric acid was 9.5 mg/dL in visit 1 (Dec. 18, 2009).
# [2] = test system: type 2 diabetes patients with micro-albuminuria, hyperuricemia sub-group (baseline blood uric acid higher than 7.0 mg/dL); assay: DIA-DM01 trial, hyperuricemia sub-group: blood uric acid level under diacerein 50 mg bid versus placebo; format: in vivo, human; details: for patients whose blood uric acid levels achieved normal range: normal: females below 6.0 mg/dL, males below 7.0 mg/dL
# From the text: Objectives: To evaluate the efficacy and safety of diacerein for the treatment of albuminuria in patients with type 2 diabetes mellitus.
# Primary Endpoints: To compare the change from baseline in the urinary albumin to creatinine ratio (UACR) after 24 weeks of diacerein or placebo administrated.
# Subjects: Male or female type 2 diabetes patients (BMI≦35 kg/m^2) with micro-albuminuria.
# Procedure: This was a Phase II, prospective, randomized, double-blind, and parallel comparison study comparing diacerein 50 mg bid (twice a day) versus placebo to albuminuria in patients with type 2 diabetes mellitus.
# At the screening visit, patients who fulfilled the enrollment criteria and gave written informed consent entered a three to ten days screening period. During the screening period, the baseline UACR was evaluated. If the baseline UACR was greater than 50 mg/g, the patients were randomized into the […] treatment period in the 1:1 ratio (diacerein versus placebo). All participants were required to be taking stable dose of angiotensin-converting-enzyme (ACE) inhibitors, angiotensin receptor blockers (ARBs), or both, for three months prior to the study. These agents were continued throughout the trial. The hypoglycemic medications were maintained during the study period. The class and/or dosage were changed if clinically indicated. An introduction of a new treatment or any regimen change to the pre-existing co-medication that had hypoglycemic or hyperglycemic potential was allowed during the study with the consent of the clinical investigator.
# The hyperuricemia sub-group was assembled from among the subjects with baseline blood uric acid level higher than 7.0 mg/dL. The results of blood uric acid level in the two treatment groups were analyzed by paired t-test of within-group changes.
# Subjects (n=76) with diabetic microalbinuria were randomized in a 1:1 ratio to receive twice-daily diacerein 50 mg (n=38), or placebo (n=38) for 24 weeks. The baseline blood levels of uric acid in nine subjects of the diacerein group (2 females and 7 males) and twelve subjects of the placebo group (2 females and 10 males) in the hyperuricemia subgroup were above 7.0 mg/dL, and the mean levels were 8.06 mg/dL and 8.38 mg/dL respectively.
compound,measurement,setting,value
"CC(=O)Oc1cccc2c1C(=O)c1c(OC(C)=O)cc(C(=O)O)cc1C2=O [diacerein, 4,5-bis(acetyloxy)-9,10-dioxo-2-anthracene carboxylic acid]",blood uric acid level,"[1]; Case 1, after 24 weeks of diacerein add-on to allopurinol",7.5 mg/dL
same,acute flares during the treatment period,"[1]; Case 1, diacerein add-on to allopurinol, 24 weeks",No acute flares were observed
same,blood uric acid level,"[1]; Case 2, after 12 weeks of diacerein add-on to allopurinol",6.4 mg/dL
same,patients whose blood uric acid levels achieved normal range,[2]; 24-week treatment with diacerein,four of the remaining seven patients
same,"Uric Acid, Mean","[2]; Baseline (before treatment), diacerein group, N=9",8.06 mg/dL
same,"Uric Acid, Mean","[2]; Baseline (before treatment), diacerein group, N=9, listed as Diacerein",8.0667 mg/dL
same,patients whose blood uric acid levels achieved normal range,[2]; after 12 weeks of diacerein,six of the nine patients
same,blood uric acid levels maintained during the treatment period,"[2]; diacerein 50 mg bid, below the upper end of the normal range",below 7.0 mg/dL
same,"Uric Acid, Mean","[2]; week 12, diacerein 50 mg bid, N=9",6.6667 mg/dL
same,"Uric Acid, Change from baseline","[2]; week 12, diacerein 50 mg bid, N=9, p=0.0037 vs. baseline",-1.40 mg/dL
same,"Uric Acid, Mean","[2]; week 24, diacerein 50 mg bid, N=7",6.5571 mg/dL
same,"Uric Acid, Change from baseline","[2]; week 24, diacerein 50 mg bid, N=7, p=0.0060 vs. baseline",-1.34 mg/dL
Oc1ncnc2[nH]ncc12 [allopurinol],blood level of uric acid,"[1]; Case 1, on allopurinol alone",8.3 mg/dL
same,blood level of uric acid,"[1]; Case 2, on allopurinol alone",9.5 mg/dL

# — patent US20120232044A1, “METHODS AND COMPOSITIONS FOR TREATING HYPERURICEMIA AND METABOLIC DISORDERS ASSOCIATED WITH HYPERURICEMIA” (TWi Biotechnology, Inc., priority 2011, published 2012)
